Assay results published in ChEMBL document CHEMBL5465560, “Selectivity Literature for EUbOPEN Chemogenomic Library” (2024).

Assays:
[1] = biological target: Hepatocyte growth factor receptor (Homo sapiens, UniProt P08581); test: Selectivity interaction (Kinase panel (33PanQinase(R) Activity Assay)) EUB0000877a MET
[2] = biological target: Mitogen-activated protein kinase kinase kinase kinase 1 (Homo sapiens) (UniProt Q92918); test: Selectivity interaction (ActivX KiNativ screen (kinase selectivity in THP-1 cell lysates)) EUB0000639a MAP4K1; type: subcellular; settings: lysate
Sequence of Mitogen-activated protein kinase kinase kinase kinase 1 (Homo sapiens) (Q92918 whole entry, looked up): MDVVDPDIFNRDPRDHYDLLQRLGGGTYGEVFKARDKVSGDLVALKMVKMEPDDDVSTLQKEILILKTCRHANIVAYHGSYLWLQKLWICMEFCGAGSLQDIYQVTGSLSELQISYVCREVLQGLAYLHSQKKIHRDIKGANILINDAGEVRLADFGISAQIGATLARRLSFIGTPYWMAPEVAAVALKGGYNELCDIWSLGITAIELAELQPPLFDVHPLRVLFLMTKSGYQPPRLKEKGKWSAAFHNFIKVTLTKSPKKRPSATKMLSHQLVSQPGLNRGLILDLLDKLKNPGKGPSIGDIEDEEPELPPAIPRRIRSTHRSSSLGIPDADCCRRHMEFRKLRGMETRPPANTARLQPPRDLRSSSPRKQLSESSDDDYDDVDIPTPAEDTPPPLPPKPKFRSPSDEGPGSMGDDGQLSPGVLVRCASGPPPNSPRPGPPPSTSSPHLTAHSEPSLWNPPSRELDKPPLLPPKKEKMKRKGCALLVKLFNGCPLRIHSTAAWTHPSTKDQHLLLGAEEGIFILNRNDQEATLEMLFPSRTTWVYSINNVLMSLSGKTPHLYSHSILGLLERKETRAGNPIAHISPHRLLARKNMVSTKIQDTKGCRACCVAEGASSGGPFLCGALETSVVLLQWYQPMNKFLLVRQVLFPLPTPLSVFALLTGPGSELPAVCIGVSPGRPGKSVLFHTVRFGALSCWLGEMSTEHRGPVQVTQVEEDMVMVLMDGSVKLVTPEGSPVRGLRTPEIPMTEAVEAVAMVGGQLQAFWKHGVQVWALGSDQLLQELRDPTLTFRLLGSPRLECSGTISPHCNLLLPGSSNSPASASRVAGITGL

[3] = biological target: Cyclin-dependent kinase 17 (Homo sapiens) (UniProt Q00537); settings: at 10 µM
Sequence of Cyclin-dependent kinase 17 (Homo sapiens) (Q00537 whole entry, looked up, the tested form may be a part): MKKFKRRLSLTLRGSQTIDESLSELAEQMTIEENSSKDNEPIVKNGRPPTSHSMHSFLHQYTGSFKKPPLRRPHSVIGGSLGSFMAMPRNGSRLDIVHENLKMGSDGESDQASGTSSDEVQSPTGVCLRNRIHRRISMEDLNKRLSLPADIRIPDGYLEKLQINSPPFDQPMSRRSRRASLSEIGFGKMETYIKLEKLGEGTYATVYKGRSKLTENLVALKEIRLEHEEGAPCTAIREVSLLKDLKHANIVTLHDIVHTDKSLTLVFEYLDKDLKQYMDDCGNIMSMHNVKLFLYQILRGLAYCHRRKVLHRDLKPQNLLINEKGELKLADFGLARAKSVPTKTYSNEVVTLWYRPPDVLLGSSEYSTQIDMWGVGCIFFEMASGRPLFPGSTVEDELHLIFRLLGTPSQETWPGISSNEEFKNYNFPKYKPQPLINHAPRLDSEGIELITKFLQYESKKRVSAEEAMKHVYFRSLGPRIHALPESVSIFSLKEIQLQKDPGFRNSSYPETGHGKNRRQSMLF

[4] = biological target: T1, Ankyrin repeat and protein kinase domain-containing protein 1 (Homo sapiens) (UniProt Q8NFD2); test: Selectivity interaction (Ambit KINOMEscan and KiNATiv profiling in Jurkat cells) EUB0000090b ANKK1; type: cell-based; settings: at 1 µM
T1 sequence (whole entry): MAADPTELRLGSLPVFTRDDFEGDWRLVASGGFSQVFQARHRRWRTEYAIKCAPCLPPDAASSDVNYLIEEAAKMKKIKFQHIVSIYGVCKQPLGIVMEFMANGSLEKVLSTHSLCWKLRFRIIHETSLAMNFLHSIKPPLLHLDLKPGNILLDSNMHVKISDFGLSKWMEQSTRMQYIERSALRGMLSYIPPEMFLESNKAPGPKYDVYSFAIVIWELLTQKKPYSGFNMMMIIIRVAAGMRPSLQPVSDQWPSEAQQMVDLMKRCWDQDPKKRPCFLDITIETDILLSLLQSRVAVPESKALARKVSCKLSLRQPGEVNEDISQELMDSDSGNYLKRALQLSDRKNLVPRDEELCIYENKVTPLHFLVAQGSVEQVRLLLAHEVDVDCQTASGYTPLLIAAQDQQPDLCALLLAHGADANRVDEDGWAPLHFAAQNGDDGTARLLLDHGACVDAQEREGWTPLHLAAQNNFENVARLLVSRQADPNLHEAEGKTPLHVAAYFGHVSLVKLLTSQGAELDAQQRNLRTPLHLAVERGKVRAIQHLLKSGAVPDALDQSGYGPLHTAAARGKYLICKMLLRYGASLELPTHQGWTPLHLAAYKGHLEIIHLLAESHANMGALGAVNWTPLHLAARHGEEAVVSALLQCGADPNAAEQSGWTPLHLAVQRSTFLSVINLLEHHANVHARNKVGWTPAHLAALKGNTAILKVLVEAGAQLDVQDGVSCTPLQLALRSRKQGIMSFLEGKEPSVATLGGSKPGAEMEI

[5] = biological target: T2, Mitogen-activated protein kinase 15 (Homo sapiens) (UniProt Q8TD08); settings: at 10 µM
T2 sequence (whole entry): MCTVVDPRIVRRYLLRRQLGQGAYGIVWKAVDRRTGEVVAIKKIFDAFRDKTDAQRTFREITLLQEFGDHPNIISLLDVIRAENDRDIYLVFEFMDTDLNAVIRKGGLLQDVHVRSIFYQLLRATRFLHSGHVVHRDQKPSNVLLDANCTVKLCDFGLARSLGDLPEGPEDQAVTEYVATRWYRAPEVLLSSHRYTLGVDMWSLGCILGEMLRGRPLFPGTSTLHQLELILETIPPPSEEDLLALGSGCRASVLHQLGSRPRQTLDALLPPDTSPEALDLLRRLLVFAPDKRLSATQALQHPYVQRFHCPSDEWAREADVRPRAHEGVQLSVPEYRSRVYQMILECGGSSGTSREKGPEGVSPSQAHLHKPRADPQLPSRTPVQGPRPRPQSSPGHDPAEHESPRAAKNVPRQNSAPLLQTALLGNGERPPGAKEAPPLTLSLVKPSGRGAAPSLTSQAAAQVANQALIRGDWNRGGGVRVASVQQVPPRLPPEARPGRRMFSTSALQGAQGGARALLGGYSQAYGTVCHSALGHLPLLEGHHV

[6] = biological target: T3, Tyrosine-protein kinase TXK (Homo sapiens) (UniProt P42681); settings: at 10 µM
T3 sequence (whole entry): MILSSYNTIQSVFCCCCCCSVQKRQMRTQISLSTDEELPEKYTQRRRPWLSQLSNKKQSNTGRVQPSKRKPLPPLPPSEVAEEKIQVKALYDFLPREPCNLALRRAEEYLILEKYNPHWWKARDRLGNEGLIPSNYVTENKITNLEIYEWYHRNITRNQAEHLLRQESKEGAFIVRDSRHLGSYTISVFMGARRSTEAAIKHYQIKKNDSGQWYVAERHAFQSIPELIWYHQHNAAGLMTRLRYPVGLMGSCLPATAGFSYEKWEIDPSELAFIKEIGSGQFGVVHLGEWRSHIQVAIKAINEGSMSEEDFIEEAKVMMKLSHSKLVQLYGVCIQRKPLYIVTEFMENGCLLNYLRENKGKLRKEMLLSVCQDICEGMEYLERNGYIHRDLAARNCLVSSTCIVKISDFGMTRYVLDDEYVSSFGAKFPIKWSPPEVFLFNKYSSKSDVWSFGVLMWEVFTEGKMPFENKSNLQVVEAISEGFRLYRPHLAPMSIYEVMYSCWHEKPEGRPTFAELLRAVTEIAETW

Sequence of Hepatocyte growth factor receptor (P08581 whole entry): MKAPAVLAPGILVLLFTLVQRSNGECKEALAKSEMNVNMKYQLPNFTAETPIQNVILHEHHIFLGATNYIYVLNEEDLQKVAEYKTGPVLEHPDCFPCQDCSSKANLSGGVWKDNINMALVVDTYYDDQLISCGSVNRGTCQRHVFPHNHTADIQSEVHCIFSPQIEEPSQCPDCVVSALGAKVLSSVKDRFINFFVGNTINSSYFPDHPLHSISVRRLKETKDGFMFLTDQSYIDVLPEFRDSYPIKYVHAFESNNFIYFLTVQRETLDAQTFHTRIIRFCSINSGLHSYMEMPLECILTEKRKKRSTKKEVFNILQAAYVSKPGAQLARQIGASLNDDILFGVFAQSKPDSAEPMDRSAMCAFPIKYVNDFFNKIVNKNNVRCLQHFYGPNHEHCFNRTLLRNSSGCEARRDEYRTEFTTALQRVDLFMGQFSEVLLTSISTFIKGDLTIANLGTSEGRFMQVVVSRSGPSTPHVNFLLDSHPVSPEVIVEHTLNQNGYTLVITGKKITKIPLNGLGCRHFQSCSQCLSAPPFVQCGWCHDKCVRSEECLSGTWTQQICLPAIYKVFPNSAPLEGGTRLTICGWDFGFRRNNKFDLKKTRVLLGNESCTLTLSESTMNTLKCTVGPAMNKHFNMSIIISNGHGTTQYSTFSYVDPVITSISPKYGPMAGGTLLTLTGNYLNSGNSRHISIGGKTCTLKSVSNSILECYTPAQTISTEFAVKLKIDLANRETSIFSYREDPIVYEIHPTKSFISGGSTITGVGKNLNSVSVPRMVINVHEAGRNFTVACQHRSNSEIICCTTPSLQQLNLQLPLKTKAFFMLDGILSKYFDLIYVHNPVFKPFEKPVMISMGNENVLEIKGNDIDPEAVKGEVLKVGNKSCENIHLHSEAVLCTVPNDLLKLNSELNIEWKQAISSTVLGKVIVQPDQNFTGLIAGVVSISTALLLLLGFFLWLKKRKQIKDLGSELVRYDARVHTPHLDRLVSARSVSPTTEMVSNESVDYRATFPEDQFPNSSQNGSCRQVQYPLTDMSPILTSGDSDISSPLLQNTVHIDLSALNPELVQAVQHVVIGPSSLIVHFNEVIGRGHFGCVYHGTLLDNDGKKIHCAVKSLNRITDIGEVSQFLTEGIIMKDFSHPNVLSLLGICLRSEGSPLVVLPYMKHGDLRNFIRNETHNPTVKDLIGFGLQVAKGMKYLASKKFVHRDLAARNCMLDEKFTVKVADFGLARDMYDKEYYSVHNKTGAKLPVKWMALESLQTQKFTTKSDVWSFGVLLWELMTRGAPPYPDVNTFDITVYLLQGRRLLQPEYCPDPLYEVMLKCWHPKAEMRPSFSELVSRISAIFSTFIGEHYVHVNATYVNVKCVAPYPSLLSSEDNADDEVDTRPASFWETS

CCC(=O)N1CC[C@H](Nc2ncnc3c2CN(c2cnc(OC)c(C(F)(F)F)c2)CC3)C1 [LENIOLISIB]
IC50 [1]: > 10 µM

CC[C@@H]1[C@H](F)C(=O)N[C@@H]1COc1nccc2cc(C(N)=O)c(OC)cc12 [ZIMLOVISERTIB]
% of inhibition ([2]; at 0.01 µM): 9.7% | % of inhibition ([2]; at 0.04 µM): -10.3% | % of inhibition ([2]; at 0.2 µM): -26.5% | % of inhibition ([2]; at 1 µM): -6.5% | % of inhibition ([2]; at 5 µM): -18.1%

COCC(=O)NC/C=C/c1ccc2ncnc(Nc3ccc(Oc4ccc(C)nc4)c(C)c3)c2c1 [CP-724714]
% of control [3]: 100%

CN(C)C/C=C/C(=O)Nc1ccc(C(=O)N2CCCC(Nc3ncc(Cl)c(-c4c[nH]c5ccccc45)n3)C2)cc1 (stereo not given)
% of control [4]: 91%

Cc1cc([C@@H](C)Nc2ccccc2C(=O)O)c2nc(N3CCOCC3)cc(=O)n2c1 [AZD-6482]
% of control [5]: 100% | % of control [6]: 90%
